Columns and labels:
human thrombin = molecular target: T1, human thrombin (Homo sapiens, UniProt P00734); experiment: Determination of the inhibition constants (Ki) for thrombin, chromogenic substrate S-2238; format: biochemical; conditions: 100 pM human thrombin, pH 7.8, 37° C., 10 minutes preincubation, tight-binding evaluation
T1 construct: By proteolysis the proenzyme prothrombin is converted into thrombin
Description: The inhibition constants (Ki) of the compounds of the formula I were determined in established enzyme-kinetic procedures. […] Inhibitor and enzyme were preincubated for 10 minutes, and the reaction was started by addition of the chromogenic substrate S2238. For the evaluation of the kinetics, the mathematical algorithm for tight-binding was used, which gave Ki values and the inhibition type with the aid of non-linear regression.

[1] = molecular target: T2, trypsin from bovine pancreas (Bos taurus, UniProt P00760); experiment: Determination of the specificity of the inhibitors: Ki of trypsin, substrate Chromozyme TRY; format: biochemical; conditions: for Ki: 0.5 nM bovine pancreas trypsin, pH 7.8, 37° C., 10 minute preincubation; for Specificity Try/Thr: ratio Ki trypsin / Ki thrombin
T2 construct: from tissue; host or cells: bovine pancreas
T2 sequence (P00760 24-246): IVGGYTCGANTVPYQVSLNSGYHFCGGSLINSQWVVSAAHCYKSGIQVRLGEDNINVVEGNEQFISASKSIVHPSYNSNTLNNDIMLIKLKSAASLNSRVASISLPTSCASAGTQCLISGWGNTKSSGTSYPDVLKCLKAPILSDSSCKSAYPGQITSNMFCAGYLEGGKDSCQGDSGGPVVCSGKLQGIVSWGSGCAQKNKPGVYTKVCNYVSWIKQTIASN
Description: The specificity of the inhibitors towards thrombin and trypsin was determined. The Ki of trypsin was determined in an analogous manner to the determination of the Ki of thrombin. The reaction mixture was composed as follows--buffer: 200 mM triethanolamine, 20 mM CaCl2, pH 7.8; 37° C.; enzyme: 0.5 nM trypsin from bovine pancreas; substrate: 500 μM carbobenzoxy-L-valyl-glycyl-L-arginine-4-nitranilide (Chromozyme TRY, from Boehringer Mannheim). The enzymatic reaction was started after a 10 minute preincubation by addition of the substrate.

CD rats = experiment: Determination of the acute toxicity; format: in vivo, rat; conditions: i.v., survival on day 1, Litchfield & Wilcoxon method
Description: To determine the acute toxicity, CD rats were injected i.v. on day 0 with different doses of the test substance dissolved in 0.5 mL of physiol. NaCl solution. Control groups received only 0.5 mL of physiol. NaCl solution. 2 rats were used per concentration of the test substance. The number of rats surviving on day 1 was determined and the LD5, LD50 and LD95 were calculated by the Litchfield & Wilcoxon method. […] The results are summarized in Table I. Pharmacological data and activities of some selected compounds: […]

thrombin = conditions: cited from earlier work

| SMILES | Ki (human thrombin) [nM] | Ki [1] [nM] | Specificity Try/Thr [1] | LD50 (rat) (CD rats) [mg/kg] | specificity for thrombin (thrombin) |
| --- | --- | --- | --- | --- | --- |
| COC(=O)C1OC(NC(=O)C[C@H](NS(=O)(=O)c2c(C)cc(OC)c(C)c2C)C(=O)N[C@H](Cc2ccc(C(=N)N)cc2)C(=O)N2CCCCC2)C(OC(C)=O)C(OC(C)=O)C1OC(C)=O.Cl (stereo partly drawn) [Compound 24, 2-N-(4-Methoxy-2,3,6-trimethyl-benzenesulfonyl)-4-N-[methyl (2,3,4-tri-O-acetyl-β-D-glucopyranosyl)uronate]-L-asparaginyl-4-amidino-D-phenylalanine-piperidide hydrochloride] | 0.8 | 231 | 289 | 46 | – |
| COc1cc(C)c(S(=O)(=O)N[C@@H](CC(=O)N[C@@H]2O[C@H](COC(C)=O)[C@@H](OC(C)=O)[C@H](OC(C)=O)[C@H]2OC(C)=O)C(=O)N[C@H](Cc2ccc(C(=N)N)cc2)C(=O)N2CCCCC2)c(C)c1C.Cl [Compound 25, 2-N-(4-Methoxy-2,3,6-trimethyl-benzenesulfonyl)-4-N-(2,3,4,6-tetra-O-acetyl-β-D-glucopyranosyl)-L-asparaginyl-4-amidino-D-phenylalanine-piperidide hydrochloride] | 2.4 | 283 | 118 | 55 | – |
| COc1cc(C)c(S(=O)(=O)N[C@@H](CC(=O)N[C@@H]2O[C@H](C(=O)O)[C@@H](O)[C@H](O)[C@H]2O)C(=O)N[C@H](Cc2ccc(C(=N)N)cc2)C(=O)N2CCCCC2)c(C)c1C.Cl [Compound 30, 2-N-(4-Methoxy-2,3,6-trimethyl-benzenesulfonyl)-4-N-[(β-D-glucopyranosyl)-uronic acid]-L-asparaginyl-4-amidino-D-phenylalanine-piperidide hydrochloride] | 0.085 | 349 | 4106 | 51 | – |
| COc1cc(C)c(S(=O)(=O)N[C@@H](CC(=O)N[C@@H]2O[C@H](CO)[C@@H](O)[C@H](O)[C@H]2O)C(=O)N[C@H](Cc2ccc(C(=N)N)cc2)C(=O)N2CCCCC2)c(C)c1C.Cl [Compound 31, 2-N-(4-Methoxy-2,3,6-trimethyl-benzenesulfonyl)-4-N-[(β-D-glucopyranosyl)-L-asparaginyl-4-amidino-D-phenylalanine-piperidide hydrochloride] | 0.075 | 501 | – | – | – |
| COc1cc(C)c(S(=O)(=O)N[C@@H](CC(=O)N[C@@H]2O[C@H](CO)[C@@H](O)[C@H](O)[C@H]2O)C(=O)N[C@H](Cc2ccc(C(=N)N)cc2)C(=O)N2CCCCC2)c(C)c1C.Cl [Compound 31] | – | – | 6680 | 45 | – |
| COc1cc(C)c(S(=O)(=O)N[C@@H](CC(=O)N[C@@H]2O[C@H](CO)[C@@H](O)[C@H](O)[C@H]2NC(C)=O)C(=O)N[C@H](Cc2ccc(C(=N)N)cc2)C(=O)N2CCCCC2)c(C)c1C.Cl [Compound 32, 2-N-(4-Methoxy-2,3,6-trimethyl-benzenesulfonyl)-4-N-(2-acetamido-2-deoxy-β-D-glucopyranosyl)-L-asparaginyl-4-amidino-D-phenylalanine-piperidide hydrochloride] | 1.1 | 528 | 480 | 53 | – |
| COc1cc(C)c(S(=O)(=O)N[C@@H](CC(=O)N[C@@H]2O[C@H](CO)[C@H](O)[C@H](O)[C@H]2O)C(=O)N[C@H](Cc2ccc(C(=N)N)cc2)C(=O)N2CCCCC2)c(C)c1C.Cl [Compound 41, 2-N-(4-Methoxy-2,3,6-trimethyl-benzenesulfonyl)-4-N-(β-D-galactopyranosyl)-L-asparaginyl-4-amidino-D-phenylalanine-piperidide hydrochloride] | 0.04 | 375 | 9375 | 50 | – |
| COc1cc(C)c(S(=O)(=O)N[C@@H](CO[C@@H]2OC[C@@H](O)[C@@H](O)[C@H]2O)C(=O)N[C@H](Cc2ccc(C(=N)N)cc2)C(=O)N2CCCCC2)c(C)c1C.I [Compound 42, 2-N-(4-Methoxy-2,3,6-trimethyl-benzenesulfonyl)-3-O-(β-D-ribo-pyranosyl)-L-seryl-4-amidino-D-phenylalanine-piperidide hydroiodide] | 1.3 | 650 | 500 | 60 | – |
| COc1cc(C)c(S(=O)(=O)N[C@@H](CC(=O)O)C(=O)N[C@H](Cc2ccc(C(=N)N)cc2)C(=O)N2CCCCC2)c(C)c1C.Cl [Compound 43, 2-N-(4-Methoxy-2,3,6-trimethyl-benzenesulfonyl)-L-Asp-4-amidino-D-phenylalanine-piperidide×HCl] | 1.5 | 187 | 125 | 62 | – |
| COc1cc(C)c(S(=O)(=O)N[C@@H](CC(=O)N[C@H]2O[C@@H](C)[C@@H](O)[C@@H](O)[C@@H]2O)C(=O)N[C@H](Cc2ccc(C(=N)N)cc2)C(=O)N2CCCCC2)c(C)c1C.Cl [Compound 49, 2-N-(4-Methoxy-2,3,6-trimethyl-benzenesulfonyl)-4-N-(β-L-fucopyranosyl)-L-aspaginyl-4-amidino-D-phenylalanine-piperidide hydrochloride] | 0.1 | 531 | 5310 | 52 | – |
| COc1cc(C)c(S(=O)(=O)N[C@@H](CC(=O)N[C@@H]2O[C@H](CO)[C@H](O)[C@H](O)[C@H]2NC(C)=O)C(=O)N[C@H](Cc2ccc(C(=N)N)cc2)C(=O)N2CCCCC2)c(C)c1C.Cl [Compound 50, 2-N-(4-Methoxy-2,3,6-trimethyl-benzenesulfonyl)-4-N-(2-acetamido-2-deoxy-β-D-galactopyranosyl)-L-asparaginyl-4-amidino-D-phenylalanine-piperididehydrochloride] | 2.1 | 608 | 289 | 64 | – |
| N=C(N)c1ccc(CC(NC(=O)CNS(=O)(=O)c2ccc3ccccc3c2)C(=O)N2CCCCC2)cc1 (centres unmarked) [NAPAP, 2-N-(2-naphthalenesulfonylglycyl)-4-amidino-phenylalaninc piperidide] | – | – | – | – | too low |

From patent US5556941A, “Glycopeptide derivatives, a process for their preparation and pharmaceutical agents containing these compounds” (Behringwerke Aktiengesellschaft, priority 1992, dated 1996)
